Literature values, collected in US20070266895A1, “Aliphatic Hydrocarbon Soluble Red Dyes” (priority 2004, published 2007).

Cc1ccccc1/N=N/c1ccc(/N=N/c2c(O)ccc3ccccc23)c(C)c1 [C.I. Solvent Red 24]
direct solubility in essentially aliphatic hydrocarbon based fuels (diesel or home heating oil): virtually no direct solubility | direct solubility in aromatic hydrocarbon containing gasolines (dry powder dye): limited direct solubility
